{"source": "patent US5250673A", "about": "“2'-deoxy-5-substituted uridine derivatives” (priority 1983, dated 1993)", "key": {"Sarcoma 180 [1]": {"system": "Sarcoma 180", "assay": "antitumor activity: 50% inhibition of tumor enhancement, Sarcoma 180 transplanted in mice", "format": "in vivo, mouse", "settings": "oral, once a day, 7 days, male ICR/JCL mice, tumor weight day 10", "experimental": "(a) Method for determining of antitumor activity value\n5×10^6 Cells of mouse-transplantable tumor Sarcoma 180 were transplanted to each male ICR/JCL-strain mouse (having a weight of 27 to 30 g) subcutaneously at the back. Each test compound dissolved or suspended in 0.1% Tween 80^(*) - 0.5% CMC solution was orally administered to various test groups each consisting of 7 mice once a day for 7 consecutive days from the next day of tumor transplanting, in an amount of 1.0 ml of solution or suspension per 100 g weight per day. As to a control group, the same Tween 80-CMC solution containing no test compound was orally administered once a day for 7 consecutive days in an amount of 1.0 ml per 100 g weight per day. (*) (A trademark for a series of surface which is a polyoxyethylene derivative of fatty acid partial ester of sorbitol anhydride, manufactured by I.C.I. U.S., Inc.)\nOn the tenth day from the tumor transplanting, an average tumor weight for each administration level of each test compound was determined. This weight was compared with an average tumor weight in control group, and the ratio of tumor enhancement inhibition at each administration level of each test compound compared with control group was calculated. From these calculations, the administration level of each test compound at which the ratio of tumor enhancement inhibition become 50% was obtained and the level (amount) was taken as the antitumor activity value of each compound."}, "[2]": {"assay": "toxicity value: 50% inhibition of weight increase of test animal (Sarcoma 180 tumor-transplanted mice)", "format": "in vivo, mouse", "settings": "oral, once a day, 7 days, male ICR/JCL mice; for TD50 at 240 h: mouse, sarcoma 180 bearing mice, read-out: Toxicity value (B) Administration amount of test compound at which weight increase of test animal is inhibited by 50% compared with that of control group", "experimental": "(b) Method for determining toxicity value\nHitherto, toxicity values of anti-malignant tumor agents have been calculated on the bases of LD50 of test animals, in most cases. […] Therefore, in the present test, accumulated toxicity, which well represents the toxicity of anti-malignant tumor agents, was focused on and, as an indication for sensitive detection of the accumulated toxicity, inhibition of weight increase of test animal was measured. That is, when antitumor activity value was determined in the above item (a), the weight of each mouse of each test groups for each test compounds was measured daily from the day of tumor transplanting, immediately before administration.\nOn the day of tumor weight measurement, the average net weight increase of each mouse of each test groups for each test compounds from the day of tumor transplanting was measured. These increases were compared with the average net weight increase of control group and the ratio of net weight increase of each test groups of each test compounds to that of control group was calculated. From these calculations, there was obtained an addition amount of each test compound at which weight increase is inhibited by 50% compared with that of control group, and that amount was taken as a toxicity value of each compound."}, "Sarcoma 180 [3]": {"system": "Sarcoma 180", "assay": "calculation of therapeutic index (B)/(A), Sarcoma 180 mice", "format": "in vivo, mouse", "design": "key: C = toxicity value (B) / antitumor activity value (A)", "settings": "Table 1-c; oral, once a day, 7 days", "experimental": "(c) Calculation of therapeutic index\nBy the use of the antitumor activity value (hereinafter referred to as A) and the toxicity value (hereinafter referred to as B) of each compound, which were obtained in the above items (a) and (b), respectively, therapeutic index (hereinafter referred to as C) was calculated in accordance with the following equation.\nTherapeutic index (C)=^(B)(A)"}, "[4]": {"settings": "relative to 5-FU; cited from earlier work"}, "[5]": {"settings": "compared with 5-FU; cited from earlier work"}, "nucleosidephosphorylase": {"system": "nucleosidephosphorylase", "settings": "administered in vivo; cited from earlier work"}, "[6]": {"settings": "in vivo; cited from earlier work"}, "[7]": {"settings": "compared with 5-FU; cited from earlier work", "remark": "listed apart in the source"}, "[8]": {"settings": "administration limited to intraarterial injection; cited from earlier work"}, "[9]": {"settings": "reported in literature; cited from earlier work"}}, "note": "Where two headings read alike, the source gives them in different places.", "data": [{"smiles": "O=c1[nH]c(=O)n([C@H]2C[C@H](O)[C@@H](CO)O2)cc1F", "note": "[FudR, 2'-deoxy-5-fluorouridine]", "values": [{"measurement": "Antitumor activity value (A) Administration amount of test compound at which tumor enhancement is inhibited by 50% compared with that of control group", "setting": "Sarcoma 180 [1]; Table 1-c", "value": 93, "unit": "mg/kg/day"}, {"measurement": "TD50 at 240 h", "setting": "[2]; Table 1-c", "value": 71, "unit": "mg/kg"}, {"measurement": "Therapeutic index (C) = (B)/(A)", "setting": "Sarcoma 180 [3]", "value": 0.76}, {"measurement": "carcinostatic activity in vitro", "setting": "[4]", "value": "about 100 times that of 5-fluorouracil"}, {"measurement": "conversion in vivo into active form", "setting": "[5]", "value": "more easily than 5-FU"}, {"measurement": "decomposition into 5-FU by nucleosidephosphorylase", "setting": "nucleosidephosphorylase", "value": "easily decomposed into 5-FU by nucleosidephosphorylase"}, {"measurement": "excretion", "setting": "[6]", "value": "excreted very quickly"}, {"measurement": "prolonged action in blood", "setting": "[6]", "value": "poor prolonged action in blood"}, {"measurement": "carcinostatic effect", "setting": "[7]", "value": "inferior to 5-FU in carcinostatic effect"}, {"measurement": "toxicity as a medicine", "setting": "[8]", "value": "very toxic"}]}, {"smiles": "O=c1[nH]c(=O)n([C@H]2C[C@H](O)[C@@H](CO)O2)cc1C(F)(F)F", "note": "[F3 TdR, 2'-Deoxy-5-trifluoromethyl uridine, reference compound]", "values": [{"measurement": "Antitumor activity value (A) Administration amount of test compound at which tumor enhancement is inhibited by 50% compared with that of control group", "setting": "Sarcoma 180 [1]; Table 1-a", "value": 68, "unit": "mg/kg/day"}, {"measurement": "Antitumor activity value (A) Administration amount of test compound at which tumor enhancement is inhibited by 50% compared with that of control group", "setting": "Sarcoma 180 [1]; Table 1-b", "value": 58, "unit": "mg/kg/day"}, {"measurement": "Toxicity value (B) Administration amount of test compound at which weight increase of test animal is inhibited by 50% compared with that of control group", "setting": "[2]; Table 1-a, 14400 min", "value": 49, "unit": "mg/kg/day"}, {"measurement": "TD50 at 240 h", "setting": "[2]; Table 1-b", "value": 40, "unit": "mg/kg"}, {"measurement": "antitumor activity", "setting": "[9]", "value": "has an antitumor activity"}]}]}
